Key:
[1] = biological target: PIK3CB (Human) (UniProt P42338); experiment: Assessment of PIK3CB Kinase Activity
[2] = biological target: PIK3CG (human) (UniProt P48736); experiment: Assessment of PIK3CG Kinase Activity
[3] = biological target: PIK3CD (Human) (UniProt O00329); experiment: Assessment of PIK3CD Kinase Activity
[4] = biological target: PIK3CA (human) (UniProt P42336); experiment: Assessment of PIK3CA Kinase Activity
PIK3CA (human), sequence (P42336 whole entry, looked up): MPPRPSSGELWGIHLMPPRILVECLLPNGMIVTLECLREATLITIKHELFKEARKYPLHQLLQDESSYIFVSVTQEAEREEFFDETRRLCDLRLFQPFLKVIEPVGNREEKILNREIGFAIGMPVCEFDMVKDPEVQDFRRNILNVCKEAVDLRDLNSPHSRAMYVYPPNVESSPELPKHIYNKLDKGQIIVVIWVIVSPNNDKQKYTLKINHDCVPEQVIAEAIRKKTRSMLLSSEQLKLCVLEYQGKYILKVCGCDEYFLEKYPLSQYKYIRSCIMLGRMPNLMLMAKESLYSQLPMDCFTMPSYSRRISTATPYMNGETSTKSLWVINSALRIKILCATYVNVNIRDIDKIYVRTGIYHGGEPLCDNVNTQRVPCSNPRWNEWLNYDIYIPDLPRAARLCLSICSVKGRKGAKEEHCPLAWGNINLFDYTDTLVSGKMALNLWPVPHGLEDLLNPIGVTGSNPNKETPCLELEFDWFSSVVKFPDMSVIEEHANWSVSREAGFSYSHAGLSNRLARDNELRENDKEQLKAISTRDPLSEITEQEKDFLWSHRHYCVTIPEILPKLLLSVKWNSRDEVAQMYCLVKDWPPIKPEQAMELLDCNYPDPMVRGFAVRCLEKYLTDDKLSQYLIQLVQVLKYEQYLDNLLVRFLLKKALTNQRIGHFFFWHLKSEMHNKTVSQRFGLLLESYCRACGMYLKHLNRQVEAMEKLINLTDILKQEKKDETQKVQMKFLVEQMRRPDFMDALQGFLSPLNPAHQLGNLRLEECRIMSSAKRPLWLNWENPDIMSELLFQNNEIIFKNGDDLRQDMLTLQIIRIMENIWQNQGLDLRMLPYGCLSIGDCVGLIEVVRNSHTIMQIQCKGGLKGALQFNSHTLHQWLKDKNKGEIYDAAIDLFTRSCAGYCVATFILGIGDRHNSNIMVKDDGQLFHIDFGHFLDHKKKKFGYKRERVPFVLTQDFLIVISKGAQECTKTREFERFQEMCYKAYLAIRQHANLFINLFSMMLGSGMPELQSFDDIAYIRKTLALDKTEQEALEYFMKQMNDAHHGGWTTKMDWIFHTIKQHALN

PIK3CG (human), sequence (P48736 whole entry, looked up): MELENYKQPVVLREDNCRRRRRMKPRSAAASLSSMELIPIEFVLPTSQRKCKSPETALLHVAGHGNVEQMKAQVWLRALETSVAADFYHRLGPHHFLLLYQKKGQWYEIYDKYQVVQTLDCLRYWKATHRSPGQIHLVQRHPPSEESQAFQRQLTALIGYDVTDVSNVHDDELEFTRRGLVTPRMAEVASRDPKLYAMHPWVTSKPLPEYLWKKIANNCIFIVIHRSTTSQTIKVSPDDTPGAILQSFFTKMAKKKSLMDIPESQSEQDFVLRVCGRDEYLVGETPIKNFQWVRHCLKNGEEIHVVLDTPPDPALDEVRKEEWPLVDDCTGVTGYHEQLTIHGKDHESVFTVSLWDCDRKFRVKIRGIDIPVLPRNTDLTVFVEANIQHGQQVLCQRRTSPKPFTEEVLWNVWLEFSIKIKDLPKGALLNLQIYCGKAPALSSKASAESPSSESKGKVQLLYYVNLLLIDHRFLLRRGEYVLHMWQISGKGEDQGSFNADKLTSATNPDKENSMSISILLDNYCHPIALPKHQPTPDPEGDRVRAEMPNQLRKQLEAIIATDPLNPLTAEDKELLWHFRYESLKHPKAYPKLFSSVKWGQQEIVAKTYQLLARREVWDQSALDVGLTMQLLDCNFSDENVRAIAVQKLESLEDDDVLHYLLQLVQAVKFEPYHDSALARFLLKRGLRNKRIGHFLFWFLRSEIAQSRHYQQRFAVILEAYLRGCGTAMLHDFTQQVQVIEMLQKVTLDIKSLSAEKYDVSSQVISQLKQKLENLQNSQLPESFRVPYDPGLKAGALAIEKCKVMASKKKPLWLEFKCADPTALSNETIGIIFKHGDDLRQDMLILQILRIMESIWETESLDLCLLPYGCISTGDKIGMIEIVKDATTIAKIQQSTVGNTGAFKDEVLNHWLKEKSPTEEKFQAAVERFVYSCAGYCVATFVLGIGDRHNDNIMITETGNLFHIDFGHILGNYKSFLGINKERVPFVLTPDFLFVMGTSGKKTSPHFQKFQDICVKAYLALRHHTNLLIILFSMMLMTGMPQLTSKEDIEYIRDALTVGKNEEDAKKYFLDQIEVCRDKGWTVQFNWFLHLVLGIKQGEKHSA
PIK3CD (Human), sequence (O00329 whole entry, looked up): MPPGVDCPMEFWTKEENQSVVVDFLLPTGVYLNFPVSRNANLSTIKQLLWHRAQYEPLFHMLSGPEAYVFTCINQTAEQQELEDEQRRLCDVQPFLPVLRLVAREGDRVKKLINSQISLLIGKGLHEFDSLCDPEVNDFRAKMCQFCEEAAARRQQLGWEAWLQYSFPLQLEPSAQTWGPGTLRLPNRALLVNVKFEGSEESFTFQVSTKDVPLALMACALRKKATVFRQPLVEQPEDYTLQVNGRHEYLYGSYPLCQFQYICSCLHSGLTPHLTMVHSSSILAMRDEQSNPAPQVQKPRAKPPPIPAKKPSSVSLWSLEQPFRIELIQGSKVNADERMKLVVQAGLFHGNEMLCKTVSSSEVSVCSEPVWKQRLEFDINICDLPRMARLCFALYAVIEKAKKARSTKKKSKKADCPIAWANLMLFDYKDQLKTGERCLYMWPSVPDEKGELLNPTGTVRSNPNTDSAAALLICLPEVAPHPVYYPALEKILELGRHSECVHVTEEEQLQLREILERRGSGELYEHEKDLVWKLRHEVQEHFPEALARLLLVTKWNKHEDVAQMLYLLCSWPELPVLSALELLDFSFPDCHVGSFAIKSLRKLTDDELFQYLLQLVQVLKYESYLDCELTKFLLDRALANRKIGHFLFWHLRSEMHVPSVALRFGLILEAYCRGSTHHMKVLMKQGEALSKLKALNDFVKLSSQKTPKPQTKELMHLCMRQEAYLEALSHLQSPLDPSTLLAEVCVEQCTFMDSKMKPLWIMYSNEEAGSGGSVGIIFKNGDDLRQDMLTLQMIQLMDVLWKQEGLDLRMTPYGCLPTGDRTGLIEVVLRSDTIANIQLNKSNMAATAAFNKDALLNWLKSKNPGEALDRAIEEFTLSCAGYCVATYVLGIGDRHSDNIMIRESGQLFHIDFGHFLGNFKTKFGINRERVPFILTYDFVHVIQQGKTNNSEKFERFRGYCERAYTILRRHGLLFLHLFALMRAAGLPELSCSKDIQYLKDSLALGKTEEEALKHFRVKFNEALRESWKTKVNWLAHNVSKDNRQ
PIK3CB (Human), sequence (P42338 whole entry, looked up): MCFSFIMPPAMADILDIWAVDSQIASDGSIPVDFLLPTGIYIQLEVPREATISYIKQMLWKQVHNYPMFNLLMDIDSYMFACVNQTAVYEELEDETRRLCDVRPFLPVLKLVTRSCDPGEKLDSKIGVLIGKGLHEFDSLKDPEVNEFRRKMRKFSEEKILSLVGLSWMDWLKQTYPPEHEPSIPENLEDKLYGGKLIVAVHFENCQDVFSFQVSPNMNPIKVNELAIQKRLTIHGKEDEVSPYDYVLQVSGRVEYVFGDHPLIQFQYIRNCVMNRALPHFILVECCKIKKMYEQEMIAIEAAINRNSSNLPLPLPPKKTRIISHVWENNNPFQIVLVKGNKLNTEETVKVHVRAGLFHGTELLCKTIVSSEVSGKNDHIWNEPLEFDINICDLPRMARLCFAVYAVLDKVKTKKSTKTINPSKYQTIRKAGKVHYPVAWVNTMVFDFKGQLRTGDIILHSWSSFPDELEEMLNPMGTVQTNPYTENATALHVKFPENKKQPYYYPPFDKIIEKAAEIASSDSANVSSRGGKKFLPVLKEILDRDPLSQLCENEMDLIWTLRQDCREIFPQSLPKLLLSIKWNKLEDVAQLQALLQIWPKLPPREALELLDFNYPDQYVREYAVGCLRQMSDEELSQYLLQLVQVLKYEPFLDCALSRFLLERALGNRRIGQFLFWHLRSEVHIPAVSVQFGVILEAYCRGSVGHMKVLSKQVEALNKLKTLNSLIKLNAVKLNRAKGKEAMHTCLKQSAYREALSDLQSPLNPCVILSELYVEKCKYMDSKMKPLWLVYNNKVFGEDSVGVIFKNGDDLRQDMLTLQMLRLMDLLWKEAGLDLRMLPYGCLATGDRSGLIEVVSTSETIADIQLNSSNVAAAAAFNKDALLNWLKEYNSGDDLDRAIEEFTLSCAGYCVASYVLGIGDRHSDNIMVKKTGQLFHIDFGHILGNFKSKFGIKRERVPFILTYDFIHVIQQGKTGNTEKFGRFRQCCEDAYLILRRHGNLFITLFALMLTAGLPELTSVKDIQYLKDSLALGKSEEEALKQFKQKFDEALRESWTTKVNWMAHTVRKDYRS

Structure (SMILES): CNc1ccc(-c2nc(N3CCOCC3)c3sc(CN(C)c4ncc(C(=O)NO)cn4)cc3n2)cn1
- IC50 [1]: 100 to 1000 nM
- IC50 [2]: 100 to 1000 nM
- IC50 [3]: < 100 nM
- IC50 [4]: < 100 nM

Structure (SMILES): CN(c1ncc(C(=O)NO)cn1)c1cc2nc(-c3ccc(N)cc3)nc(N3CCOCC3)c2s1
- IC50 [4]: < 100 nM

Structure (SMILES): Nc1ccc(-c2nc(N3CCOCC3)c3sc(Nc4ncc(C(=O)NO)cn4)cc3n2)cc1
- IC50 [4]: < 100 nM

Structure (SMILES): CN(Cc1cc2nc(-c3cnn(C)c3)nc(N3CCOCC3)c2s1)c1ncc(C(=O)NO)cn1
- IC50 [4]: 100 to 1000 nM

Structure (SMILES): CN(Cc1cc2nc(-c3cccc(OCCO)c3)nc(N3CCOCC3)c2s1)c1ncc(C(=O)NO)cn1
- IC50 [4]: < 100 nM

Structure (SMILES): CN(Cc1cc2nc(-c3cccc(CCO)c3)nc(N3CCOCC3)c2s1)c1ncc(C(=O)NO)cn1
- IC50 [4]: 100 to 1000 nM

Structure (SMILES): Nc1ccc(-c2nc(N3CCOCC3)c3sc(S(=O)(=O)Nc4ncc(C(=O)NO)cn4)cc3n2)cc1
- IC50 [4]: < 100 nM

Structure (SMILES): Nc1ccc(-c2nc(N3CCOCC3)c3sc(CN(CCO)c4ncc(C(=O)NO)cn4)cc3n2)cc1F
- IC50 [4]: < 100 nM

Structure (SMILES): CNc1ccc(-c2nc(N3CCOCC3)c3sc(NS(=O)(=O)c4cccc(C=CC(=O)NO)c4)cc3n2)cn1
- IC50 [4]: < 100 nM

Structure (SMILES): CNc1ccc(-c2nc(N3CCOCC3)c3sc(N(C)c4ncc(C(=O)NO)cn4)cc3n2)cn1
- IC50 [4]: < 100 nM

Structure (SMILES): Nc1ncc(-c2nc(N3CCOCC3)c3sc(NCCCCC(=O)NO)cc3n2)cn1
- IC50 [4]: < 100 nM

Structure (SMILES): CCNc1ccc(-c2nc(N3CCOCC3)c3sc(CN(C)c4ncc(C(=O)NO)cn4)cc3n2)cc1
- IC50 [4]: > 10000 nM

Structure (SMILES): COc1ccc(-c2nc(N3CCOCC3)c3sc(Nc4ncc(C(=O)NO)cn4)cc3n2)cn1
- IC50 [4]: < 100 nM

Structure (SMILES): CC(C)C(=O)Nc1ccc(-c2nc(N3CCOCC3)c3sc(CN(C)c4ncc(C(=O)NO)cn4)cc3n2)cc1
- IC50 [4]: 100 to 1000 nM

Structure (SMILES): CNc1ccc(-c2nc(N3CCOCC3)c3sc(S(=O)(=O)NCC4CCN(c5ncc(C(=O)NO)cn5)CC4)cc3n2)cn1
- IC50 [4]: < 100 nM

Structure (SMILES): CNc1ccc(-c2nc(N3CCOCC3)c3sc(NCCCCC(=O)NO)cc3n2)cn1
- IC50 [4]: < 100 nM

Structure (SMILES): CN(Cc1cc2nc(-c3ccc([N+](=O)[O-])c(O)c3)nc(N3CCOCC3)c2s1)c1ncc(C(=O)NO)cn1
- IC50 [4]: < 100 nM

Structure (SMILES): CN(Cc1cc2nc(-c3cccc4[nH]ncc34)nc(N3CCN(CCO)CC3)c2s1)c1ncc(C(=O)NO)cn1
- IC50 [4]: > 10000 nM

Structure (SMILES): Nc1ncc(-c2nc(N3CCOCC3)c3sc(NS(=O)(=O)c4ccc(/C=C/C(=O)NO)cc4)cc3n2)cn1
- IC50 [4]: < 100 nM

Structure (SMILES): CS(=O)(=O)N1CCN(Cc2cc3nc(-c4cccc5c4cnn5CCCCCCC(=O)NO)nc(N4CCOCC4)c3s2)CC1
- IC50 [4]: > 10000 nM

Structure (SMILES): CN(Cc1cc2nc(-c3cc(O)ccc3F)nc(N3CCOCC3)c2s1)c1ncc(C(=O)NO)cn1
- IC50 [4]: < 100 nM
